Assay results reported in patent US20260256789A1, “METHODS FOR TREATMENT OF CANCER” (Frontier Medicines Corporation, priority 2022, published 2026).

Target: T1, KRAS G12C (GMPPNP-loaded) and cRAF Ras-binding domain (Homo sapiens, UniProt P01116, C118S/C51S/C80L/G12C)
T1 construct: truncated version comprising amino acids 1-169
Assay: Inhibition of KRAS G12C and cRAF binding (AlphaScreen)
Settings: KRAS G12C preloaded with GTP analogue GMPPNP, 2 hours preincubation
Summary of the method: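 Compounds (10-point, 1:3 from 50 μM; 2% DMSO) were incubated 2 h at room temperature with 0.5 nM GMPPNP-preloaded truncated Cys-light KRAS G12C, then 60-90 min with 0.75 nM GST-RBD of cRAF and AlphaScreen beads. Signal at 570 nm gave IC50 by 4-parameter regression, and a biotin-AviTag-GST counter assay excluded interference with the AlphaScreen readout.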

T1 sequence (P01116 1-169 isoform P01116-2 G12C/C51S/C80L/C118S): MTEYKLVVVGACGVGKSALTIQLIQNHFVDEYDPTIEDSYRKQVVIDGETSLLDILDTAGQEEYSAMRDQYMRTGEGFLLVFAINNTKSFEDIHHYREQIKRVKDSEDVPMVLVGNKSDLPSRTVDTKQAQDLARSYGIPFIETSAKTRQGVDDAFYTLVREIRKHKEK

Row | Compound | IC50 [nM]
1 | C=CC(=O)N1CC[C@@H](N(C)c2nc(OC[C@@]34CCCN3C[C@H](F)C4)nc3c(F)c(-c4cc(O)cc(F)c4C4CC4)ncc23)C1 [Example 206] | < 10
2 | CN(c1nc(OC[C@@]23CCCN2C[C@H](F)C3)nc2c(F)c(-c3cccc(Cl)c3C3CC3)ncc12)[C@@H]1CCN(C(=O)/C=C/CN2CC[C@@H](F)C2)C1 [Example 262] | 10 to 100
3 | C=CC(=O)N1CC[C@@H](N(C)c2nc(OC[C@@]34CCCN3C[C@H](F)C4)nc3c(F)c(-c4cnn5cccc(F)c45)ncc23)C1 [Example 212] | ≥ 500
4 | CN(CC1CN(C(=O)/C=C/c2nc(C(C)(C)O)no2)C1)c1nc(OC[C@@]23CCCN2C[C@H](F)C3)nc2c(F)c(-c3nc(N)cc4cccc(Cl)c34)ncc12 [Example 151] | < 10
5 | CN1CC[C@@H]1/C=C/C(=O)N1CC[C@@H](N(C)c2nc(OC[C@@]34CCCN3C[C@H](F)C4)nc3c(F)c(-c4cccc(Cl)c4C4CC4)ncc23)C1 [Example 227] | < 10
6 | C=CC(=O)N1CC[C@@H](N(C)c2nc(OC[C@@]34CCCN3C[C@H](F)C4)nc3c(F)c(-c4cncc(F)c4C4CC4)ncc23)C1 [Example 188] | ≥ 500
7 | C=CC(=O)N1CC[C@@H](N(C)c2nc(OC[C@@]34CCCN3C[C@H](F)C4)nc3c(F)c(-c4cncc(Cl)c4C4CC4)ncc23)C1 [Example 240] | ≥ 500
8 | CN(C)CC#CC(=O)N1CC[C@@H](N(C)c2nc(OC[C@@]34CCCN3C[C@H](F)C4)nc3c(F)c(-c4nc(N)cc5cccc(F)c45)ncc23)C1 [Example 106] | < 10
9 | C=CC(=O)N1CC[C@@H](N(C)c2nc(OC[C@@]34CCCN3C[C@H](F)C4)nc3c(F)c(-c4c(C)cc(F)c5[nH]ncc45)ncc23)C1 [Example 232] | ≥ 500
10 | C=CC(=O)N1CC(CN(C)c2nc(OC[C@@]34CCCN3C[C@H](F)C4)nc3c(F)c(-c4nc(N)cc5cccc(F)c45)ncc23)C1 [Example 128, 1-(3-(((7-(3-amino-8-fluoroisoquinolin-1-yl)-8-fluoro-2-(((2R,7aS)-2-fluorotetrahydro-1H-pyrrolizin-7a(5H)-yl)methoxy)pyrido[4,3-d]pyrimidin-4-yl)(methyl)amino)methyl)azetidin-1-yl)prop-2-en-1-one] | ≥ 500
11 | C=CC(=O)N1CC[C@@H](N(C)c2nc(OC[C@@]34CCCN3C[C@H](F)C4)nc3c(F)c(-c4cc(OC)cc5nccnc45)ncc23)C1 [Example 230] | ≥ 500
12 | C=CC(=O)N1CC(CN(C)c2nc(OC[C@@]34CCCN3C[C@H](F)C4)nc3c(F)c(-c4nc(N)cc(C)c4C4CC4)ncc23)C1 [Example 133, 1-(3-(((7-(6-amino-3-cyclopropyl-4-methylpyridin-2-yl)-8-fluoro-2-(((2R,7aS)-2-fluorotetrahydro-1H-pyrrolizin-7a(5H)-yl)methoxy)pyrido[4,3-d]pyrimidin-4-yl)(methyl)amino)methyl)azetidin-1-yl)prop-2-en-1-one] | ≥ 500
13 | C=CC(=O)N1CC[C@@H](N(C)c2nc(OC[C@@]34CCCN3C[C@H](F)C4)nc3c(F)c(-c4nc(N)ccc4OC(F)F)ncc23)C1 [Example 261] | ≥ 500
14 | C=CC(=O)N1CC[C@@H](N(C)c2nc(OC[C@@]34CCCN3C[C@H](F)C4)nc3c(F)c(-c4ccccc4C(F)F)ncc23)C1 [Example 181] | ≥ 500
15 | C=CC(=O)N1CC[C@@H](N(C)c2nc(OC[C@@]34CCCN3C[C@H](F)C4)nc3c(F)c(-c4cn[nH]c4C4CC4)ncc23)C1 [Example 179] | ≥ 500

Now from value to compound:

Row | IC50 [nM] | Compound
16 | ≥ 500 | C=CC(=O)N1CC[C@@H](N(C)c2nc(OC[C@@]34CCCN3C[C@H](F)C4)nc3c2CCN(c2nc(N)cc(C)c2C(F)(F)F)C3)C1 [Example 111, 1-((R)-3-((7-(6-amino-4-methyl-3-(trifluoromethyl)pyridin-2-yl)-2-(((2R,7aS)-2-fluorotetrahydro-1H-pyrrolizin-7a(5H)-yl)methoxy)-5,6,7,8-tetrahydropyrido[3,4-d]pyrimidin-4-yl)(methyl)amino)pyrrolidin-1-yl)prop-2-en-1-one]
17 | < 10 | CC(C)c1noc(/C=C/C(=O)N2CC[C@@H](N(C)c3nc(OC[C@@]45CCCN4C[C@H](F)C5)nc4c(F)c(-c5nc(N)cc6cccc(Cl)c56)ncc34)C2)n1 [Example 60, (E)-1-((R)-3-((7-(3-amino-8-chloroisoquinolin-1-yl)-8-fluoro-2-(((2R,7aS)-2-fluorohexahydro-1H-pyrrolizin-7a-yl)methoxy)pyrido[4,3-d]pyrimidin-4-yl)(methyl)amino)pyrrolidin-1-yl)-3-(3-isopropyl-1,2,4-oxadiazol-5-yl)prop-2-en-1-one]
18 | < 10 | CN1CC[C@@H]1/C=C/C(=O)N1CC[C@@H](N(C)c2nc(OC[C@@]34CCCN3C[C@H](F)C4)nc3c(F)c(-c4cc(O)cc(Cl)c4C4CC4)ncc23)C1 [Example 213]
19 | ≥ 500 | Cc1noc(/C=C/C(=O)N2CC[C@@H](N(C)c3nc(OC[C@@]45CCCN4C[C@H](F)C5)nc4c3CCN(c3nc(N)cc(C)c3C(F)(F)F)C4)C2)n1 [Example 95, (E)-1-((R)-3-((7-(6-amino-4-methyl-3-(trifluoromethyl)pyridin-2-yl)-2-(((2R,7aS)-2-fluorotetrahydro-1H-pyrrolizin-7a(5H)-yl)methoxy)-5,6,7,8-tetrahydropyrido[3,4-d]pyrimidin-4-yl)(methyl)amino)pyrrolidin-1-yl)-3-(3-methyl-1,2,4-oxadiazol-5-yl)prop-2-en-1-one]
20 | 10 to 100 | CC(C)c1noc(/C=C/C(=O)N2CC[C@@H](N(C)c3nc(OC[C@@]45CCCN4C[C@H](F)C5)nc4c(F)c(-c5nc(N)ccc5C(F)(F)F)ncc34)C2)n1 [Example 47, (E)-1-((R)-3-((7-(6-amino-3-(trifluoromethyl)pyridin-2-yl)-8-fluoro-2-(((2R,7aS)-2-fluorotetrahydro-1H-pyrrolizin-7a(5H)-yl)methoxy)pyrido[4,3-d]pyrimidin-4-yl)(methyl)amino)pyrrolidin-1-yl)-3-(3-isopropyl-1,2,4-oxadiazol-5-yl)prop-2-en-1-one]
21 | 10 to 100 | C=CC(=O)N1CC[C@@H](N(C)c2nc(OC[C@@]34CCCN3C[C@H](F)C4)nc3c(F)c(-c4nc(N)cc5cccc(F)c45)ncc23)C1 [Example 76, 1-((R)-3-((7-(3-amino-8-fluoroisoquinolin-1-yl)-8-fluoro-2-(((2R,7aS)-2-fluorohexahydro-1H-pyrrolizin-7a-yl)methoxy)pyrido[4,3-d]pyrimidin-4-yl)(methyl)amino)pyrrolidin-1-yl)prop-2-en-1-one]
22 | ≥ 500 | C=CC(=O)N1CC(CN(C)c2nc(OCC34CCCN3CCC4)nc3c2C[C@H](C)[C@@H](c2nc(N)cc(C)c2C(F)(F)F)C3)C1 [Example 109]
23 | ≥ 500 | Cc1nsc(/C=C/C(=O)N2CC(CN(C)c3nc(OC[C@@]45CCCN4C[C@H](F)C5)nc4c3C[C@H](C)[C@@H](c3nc(N)cc(C)c3C(F)(F)F)C4)C2)n1 (single isomer, unassigned) [Example 174]
24 | 10 to 100 | Cc1cc(N)nc([C@@H]2Cc3nc(OC[C@@]45CCCN4C[C@H](F)C5)nc(N(C)CC4CN(C(=O)/C=C/c5nc(C(C)(C)O)no5)C4)c3C[C@H]2C)c1C(F)(F)F (single isomer, unassigned) [Example 162]
25 | 10 to 100 | CN1CC[C@@H]1/C=C/C(=O)N1CC[C@@H](N(C)c2nc(OC[C@@]34CCCN3C[C@H](F)C4)nc3c(F)c(-c4nc(N)cc5cccc(Cl)c45)ncc23)C1 (single isomer, unassigned) [Example 3]
26 | < 10 | Cc1cc(N)nc(-c2ncc3c(N(C)[C@@H]4CCN(C(=O)/C=C/c5nc(C6CC6)no5)C4)nc(OC[C@@]45CCCN4C[C@H](F)C5)nc3c2F)c1C(F)(F)F [Example 63, (E)-1-((R)-3-((7-(6-amino-4-methyl-3-(trifluoromethyl)pyridin-2-yl)-8-fluoro-2-(((2R,7aS)-2-fluorotetrahydro-1H-pyrrolizin-7a(5H)-yl)methoxy)pyrido[4,3-d]pyrimidin-4-yl)(methyl)amino)pyrrolidin-1-yl)-3-(3-cyclopropyl-1,2,4-oxadiazol-5-yl)prop-2-en-1-one]
27 | < 10 | Cc1noc(/C=C/C(=O)N2CC[C@@H](N(C)c3nc(OCC45CCCN4CCC5)nc4c3CC(C)C(c3nc(N)cc(C)c3C(F)(F)F)C4)C2)n1 (stereo partly drawn) [Example 143]
28 | 100 to 500 | Cc1cc(N)nc(-c2ncc3c(N(C)CC4CN(C(=O)/C=C/CN5CCOCC5)C4)nc(OC[C@@]45CCCN4C[C@H](F)C5)nc3c2F)c1C(F)(F)F [Example 129]
29 | ≥ 500 | CN(c1nc(OC[C@@]23CCCN2C[C@H](F)C3)nc2c(F)c(-c3nc(N)cc4cccc(F)c34)ncc12)[C@@H]1CCN(C(=O)/C=C/CN2CCOCC2)C1 [Example 167, (E)-1-((R)-3-((7-(3-amino-8-fluoroisoquinolin-1-yl)-8-fluoro-2-(((2R,7aS)-2-fluorotetrahydro-1H-pyrrolizin-7a(5H)-yl)methoxy)pyrido[4,3-d]pyrimidin-4-yl)(methyl)amino)pyrrolidin-1-yl)-4-morpholinobut-2-en-1-one]
30 | < 10 | Cc1cc(N)nc([C@@H]2Cc3nc(OC[C@@]45CCCN4C[C@H](F)C5)nc(N(C)[C@@H]4CCN(C(=O)/C=C/c5nc(C(C)(C)O)no5)C4)c3C[C@H]2C)c1C(F)(F)F [Example 89, (E)-1-((R)-3-(((6R,7R)-7-(6-amino-4-methyl-3-(trifluoromethyl)pyridin-2-yl)-2-(((2R,7aS)-2-fluorotetrahydro-1H-pyrrolizin-7a(5H)-yl)methoxy)-6-methyl-5,6,7,8-tetrahydroquinazolin-4-yl)(methyl)amino)pyrrolidin-1-yl)-3-(3-(2-hydroxypropan-2-yl)-1,2,4-oxadiazol-5-yl)prop-2-en-1-one]
